Measurements: ChEMBL document CHEMBL1157021, “Synthesis, structure and affinity of novel 3-alkoxy-1,2-dihydro-3H-1,4-benzodiazepin-2-ones for CNS central and peripheral benzodiazepine receptors” (Eur J Med Chem, 2010)

How the values were obtained:
Translocator protein = Translocator protein (Rattus norvegicus, UniProt P16257); test: Displacement of [3H]PK11195 from peripheral benzodiazepine receptor in Wistar rat brain synaptosomal membrane after 120 mins by scintillation counting
[1] = Displacement of [3H]flumazenil from central benzodiazepine receptor in Wistar rat brain synaptosomal membrane after 60 mins by scintillation counting
[2] = Binding affinity to central benzodiazepine receptor

Chain of Translocator protein (P16257 whole entry, looked up): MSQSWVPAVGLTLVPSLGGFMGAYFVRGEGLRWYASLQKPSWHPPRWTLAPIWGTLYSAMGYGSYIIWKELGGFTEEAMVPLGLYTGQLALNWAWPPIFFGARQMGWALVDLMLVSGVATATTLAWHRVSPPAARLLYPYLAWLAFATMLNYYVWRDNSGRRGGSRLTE

Q: What does the source list for `CCOC1N=C(c2ccccc2)c2cc(Br)ccc2NC1=O` (racemic)?
A: IC50 (Translocator protein): > 1 µM; IC50 [1]: > 1 µM

Q: With `O=C1Nc2ccc(Br)cc2C(c2ccccc2)=NC1OCCO` (centres undefined) as the molecule, how does the IC50 (Translocator protein) read?
A: The IC50 was over 1 µM.

Q: What about the IC50 [1] of the same molecule?
A: The IC50 was 0.54 µM.

Q: Which Ki [2] does the source give for `O=C(O)CCC(=O)OC1N=C(c2ccccc2Cl)c2cc(Br)ccc2NC1=O` (centres undefined) [CINAZEPAM] here?
A: Its Ki is 0.072 µM.

Q: With `COCCOC1N=C(c2ccccc2Cl)c2cc(Br)ccc2NC1=O` (racemic) as the molecule, how does the IC50 (Translocator protein) read?
A: The IC50 was over 1 µM.

Q: What about the IC50 [1] of the same molecule?
A: Its IC50 is 0.009 µM.

Q: With `O=C1Nc2ccc(Br)cc2C(c2ccccc2Cl)=NC1OCCO` (racemic) as the molecule, how does the IC50 (Translocator protein) read?
A: Its IC50 is over 1 µM.

Q: And the IC50 [1]?
A: Its IC50 is 0.048 µM.

Q: For `COCCO[C@H]1N=C(c2ccccc2)c2cc(Br)ccc2NC1=O`, which IC50 (Translocator protein) is on record?
A: Its IC50 is over 1 µM.

Q: What about the IC50 [1] of the same molecule?
A: The IC50 was 4.93 µM.

Q: Which IC50 (Translocator protein) does the source give for `COCCO[C@@H]1N=C(c2ccccc2)c2cc(Br)ccc2NC1=O` here?
A: The IC50 was over 1 µM.

Q: And the IC50 [1]?
A: The IC50 was 0.245 µM.

Q: With `COCCOC1N=C(c2ccccc2)c2cc(Br)ccc2NC1=O` (racemic) as the molecule, how does the IC50 (Translocator protein) read?
A: The IC50 was over 1 µM.

Q: And the IC50 [1]?
A: The IC50 was 0.51 µM.

Q: With `CCOC1N=C(c2ccccc2Cl)c2cc(Br)ccc2NC1=O` (racemic) as the molecule, how does the IC50 (Translocator protein) read?
A: The IC50 was over 1 µM.

Q: What about the IC50 [1] of the same molecule?
A: The IC50 was 0.052 µM.

Q: For `CCOC1N=C(c2ccccc2)c2cc(C)ccc2NC1=O` (racemic), which IC50 (Translocator protein) is on record?
A: Its IC50 is over 1 µM.

Q: What about the IC50 [1] of the same molecule?
A: Its IC50 is over 1 µM.
